Measurements: the supplement of paper PMC10307832

What was measured:
Experiment in all cases: relative viability (nuclei count vs DMSO), 5 days (fraction); higher = more cells survive
LCLC-103H = test system: LCLC-103H
How it was run: (§1)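 Dosing by pin tool came one day after lung cancer cell lines were seeded in 1536-well plates, using either one drug or a fixed anchor-drug dose plus five library-drug doses (not always all listed) in √10 steps. After 5 days, nuclei were counted on 4× images. Relative viability is treated-well nuclei count divided by vehicle-well nuclei count, and values are medians of duplicate plates.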

LXF-289 = test system: LXF-289
How it was run: as §1

NCI-H1355 = test system: NCI-H1355
How it was run: as §1

NCI-H1651 = test system: NCI-H1651
How it was run: as §1

NCI-H1755 = test system: NCI-H1755
How it was run: as §1

NCI-H1915 = test system: NCI-H1915
How it was run: as §1

NCI-H2170 = test system: NCI-H2170
How it was run: as §1

NCI-H2347 = test system: NCI-H2347
How it was run: as §1

NCI-H3122 = test system: NCI-H3122
How it was run: as §1

NCI-H322M = test system: NCI-H322M
How it was run: as §1

NCI-H441 = test system: NCI-H441
How it was run: as §1

NCI-H460 = test system: NCI-H460
How it was run: as §1

NCI-H520 = test system: NCI-H520
How it was run: as §1

NCI-H522 = test system: NCI-H522
How it was run: as §1

NCI-H596 = test system: NCI-H596
How it was run: as §1

NCI-H650 = test system: NCI-H650
How it was run: as §1

NCI-H661 = test system: NCI-H661
How it was run: as §1

NCI-H727 = test system: NCI-H727
How it was run: as §1

PC-14 = test system: PC-14
How it was run: as §1

RERF-LC-KJ = test system: RERF-LC-KJ
How it was run: as §1

SK-MES-1 = test system: SK-MES-1
How it was run: as §1

SW 900 = test system: SW 900
How it was run: as §1

SMILES: COc1cc(N2CCC(C(N)=O)CC2)ccc1Nc1nc(N)c(Cl)c(Nc2ccccc2S(=O)(=O)C(C)C)n1 [HG-5-88-01] + O=C(CCCCCCC(=O)Nc1ccccc1)NO [Vorinostat] (partner 1 µM)
- relative viability (LCLC-103H; first compound 0.04 µM): 0.826
- relative viability (LCLC-103H; first compound 0.1265 µM): 0.767
- relative viability (LCLC-103H; first compound 0.4 µM): 0.65
- relative viability (LCLC-103H; first compound 1.265 µM): 0.757
- relative viability (LCLC-103H; first compound 4 µM): 0.605
- relative viability (LXF-289; first compound 0.04 µM): 0.93
- relative viability (LXF-289; first compound 0.1265 µM): 0.754
- relative viability (LXF-289; first compound 0.4 µM): 0.826
- relative viability (LXF-289; first compound 1.265 µM): 0.847
- relative viability (LXF-289; first compound 4 µM): 0.822
- relative viability (NCI-H1355; first compound 0.04 µM): 0.59
- relative viability (NCI-H1355; first compound 0.1265 µM): 0.62
- relative viability (NCI-H1355; first compound 0.4 µM): 0.626
- relative viability (NCI-H1355; first compound 1.265 µM): 0.587
- relative viability (NCI-H1355; first compound 4 µM): 0.399
- relative viability (NCI-H1651; first compound 0.04 µM): 0.509
- relative viability (NCI-H1651; first compound 0.1265 µM): 0.57
- relative viability (NCI-H1651; first compound 0.4 µM): 0.572
- relative viability (NCI-H1651; first compound 1.265 µM): 0.552
- relative viability (NCI-H1651; first compound 4 µM): 0.528
- relative viability (NCI-H1755; first compound 0.04 µM): 0.79
- relative viability (NCI-H1755; first compound 0.1265 µM): 0.804
- relative viability (NCI-H1755; first compound 0.4 µM): 0.715
- relative viability (NCI-H1755; first compound 1.265 µM): 0.748
- relative viability (NCI-H1755; first compound 4 µM): 0.744
- relative viability (NCI-H1915; first compound 0.04 µM): 0.476
- relative viability (NCI-H1915; first compound 0.1265 µM): 0.525
- relative viability (NCI-H1915; first compound 0.4 µM): 0.525
- relative viability (NCI-H1915; first compound 1.265 µM): 0.57
- relative viability (NCI-H1915; first compound 4 µM): 0.386
- relative viability (NCI-H2170; first compound 0.04 µM): 0.837
- relative viability (NCI-H2170; first compound 0.1265 µM): 0.9
- relative viability (NCI-H2170; first compound 0.4 µM): 0.773
- relative viability (NCI-H2170; first compound 1.265 µM): 0.594
- relative viability (NCI-H2170; first compound 4 µM): 0.892
- relative viability (NCI-H2347; first compound 0.04 µM): 0.52
- relative viability (NCI-H2347; first compound 0.1265 µM): 0.544
- relative viability (NCI-H2347; first compound 0.4 µM): 0.731
- relative viability (NCI-H2347; first compound 1.265 µM): 0.553
- relative viability (NCI-H2347; first compound 4 µM): 0.577
- relative viability (NCI-H3122; first compound 0.04 µM): 0.731
- relative viability (NCI-H3122; first compound 0.1265 µM): 0.438
- relative viability (NCI-H3122; first compound 0.4 µM): 0.195
- relative viability (NCI-H3122; first compound 1.265 µM): 0.218
- relative viability (NCI-H3122; first compound 4 µM): 0.158
- relative viability (NCI-H322M; first compound 0.04 µM): 0.864
- relative viability (NCI-H322M; first compound 0.1265 µM): 0.809
- relative viability (NCI-H322M; first compound 0.4 µM): 0.782
- relative viability (NCI-H322M; first compound 1.265 µM): 0.668
- relative viability (NCI-H322M; first compound 4 µM): 0.706
- relative viability (NCI-H441; first compound 0.04 µM): 0.779
- relative viability (NCI-H441; first compound 0.1265 µM): 0.736
- relative viability (NCI-H441; first compound 0.4 µM): 0.678
- relative viability (NCI-H441; first compound 1.265 µM): 0.865
- relative viability (NCI-H441; first compound 4 µM): 0.725
- relative viability (NCI-H460; first compound 0.04 µM): 0.72
- relative viability (NCI-H460; first compound 0.1265 µM): 0.737
- relative viability (NCI-H460; first compound 0.4 µM): 0.678
- relative viability (NCI-H460; first compound 1.265 µM): 0.783
- relative viability (NCI-H460; first compound 4 µM): 0.595
- relative viability (NCI-H520; first compound 0.04 µM): 0.747
- relative viability (NCI-H520; first compound 0.1265 µM): 0.601
- relative viability (NCI-H520; first compound 0.4 µM): 0.803
- relative viability (NCI-H520; first compound 1.265 µM): 0.79
- relative viability (NCI-H520; first compound 4 µM): 0.781
- relative viability (NCI-H522; first compound 0.04 µM): 0.923
- relative viability (NCI-H522; first compound 0.1265 µM): 0.855
- relative viability (NCI-H522; first compound 0.4 µM): 0.784
- relative viability (NCI-H522; first compound 1.265 µM): 0.667
- relative viability (NCI-H522; first compound 4 µM): 0.671
- relative viability (NCI-H596; first compound 0.04 µM): 0.604
- relative viability (NCI-H596; first compound 0.1265 µM): 0.597
- relative viability (NCI-H596; first compound 0.4 µM): 0.641
- relative viability (NCI-H596; first compound 1.265 µM): 0.571
- relative viability (NCI-H596; first compound 4 µM): 0.532
- relative viability (NCI-H650; first compound 0.04 µM): 0.409
- relative viability (NCI-H650; first compound 0.1265 µM): 0.402
- relative viability (NCI-H650; first compound 0.4 µM): 0.386
- relative viability (NCI-H650; first compound 1.265 µM): 0.424
- relative viability (NCI-H650; first compound 4 µM): 0.29
- relative viability (NCI-H661; first compound 0.04 µM): 0.793
- relative viability (NCI-H661; first compound 0.1265 µM): 0.791
- relative viability (NCI-H661; first compound 0.4 µM): 0.771
- relative viability (NCI-H661; first compound 1.265 µM): 0.761
- relative viability (NCI-H661; first compound 4 µM): 0.856
- relative viability (NCI-H727; first compound 0.04 µM): 1.29
- relative viability (NCI-H727; first compound 0.1265 µM): 1.18
- relative viability (NCI-H727; first compound 0.4 µM): 1.19
- relative viability (NCI-H727; first compound 4 µM): 1.1
- relative viability (PC-14; first compound 0.04 µM): 0.813
- relative viability (PC-14; first compound 0.1265 µM): 0.759
- relative viability (PC-14; first compound 0.4 µM): 0.656
- relative viability (PC-14; first compound 1.265 µM): 0.261
- relative viability (PC-14; first compound 4 µM): 0.155
- relative viability (RERF-LC-KJ; first compound 0.04 µM): 0.73
- relative viability (RERF-LC-KJ; first compound 0.1265 µM): 0.703
- relative viability (RERF-LC-KJ; first compound 0.4 µM): 0.624
- relative viability (RERF-LC-KJ; first compound 1.265 µM): 0.691
- relative viability (RERF-LC-KJ; first compound 4 µM): 0.405
- relative viability (SK-MES-1; first compound 0.04 µM): 1.14
- relative viability (SK-MES-1; first compound 0.1265 µM): 1.03
- relative viability (SK-MES-1; first compound 0.4 µM): 1.1
- relative viability (SK-MES-1; first compound 1.265 µM): 0.979
- relative viability (SK-MES-1; first compound 4 µM): 1.21
- relative viability (SW 900; first compound 0.04 µM): 0.583
- relative viability (SW 900; first compound 0.1265 µM): 0.334
- relative viability (SW 900; first compound 0.4 µM): 0.525
- relative viability (SW 900; first compound 1.265 µM): 0.447
- relative viability (SW 900; first compound 4 µM): 0.354
